Broadly, the logP is the decadic logarithm of the partition coefficient of the neutral form, usually between octanol and water.

The data set is described as follows: logP by HPLC (EEC Directive 79/831 Annex V.A8). In kind it is physicochemical.
The mark [1] stands for this setting: [b] LC-MS, acidic range, pH 2.7, 0.1% aqueous formic acid and acetonitrile.
Where [2] appears, read: pH 2.7, given in the preparation examples, read-out: log P (pH 2.7).
Setting [3] is: [c] LC-MS, neutral range, pH 7.8, 0.001 molar aqueous ammonium bicarbonate and acetonitrile.

Like-named read-outs stand apart in the source and are kept apart here. Marks after values point to notes of the source that are not given here.

As for `O=C(Oc1cccc2ccccc12)c1csc(C2CCN(C(=O)Cc3cccc(C(F)(F)F)c3)CC2)n1` [Example 1], the logP under setting [1] is 4.16^[b].

As for `O=C(OC1CCCCC1)c1csc(C2CCN(C(=O)Cc3cccc(C(F)(F)F)c3)CC2)n1` [Example 2], under setting [1], the log partition coefficient (logP) is 4.21^[b].

On to `CCCCC(=O)N1CCC(c2nc(C(=O)Oc3cccc4ccccc34)cs2)CC1` [Example 3], for which, under setting [1], the lipophilicity (logP) is 3.66^[b].

In the case of `CCCCC(=O)N1CCC(c2nc(C(=O)OC3CCCCC3)cs2)CC1` [Example 4], under setting [1], the lipophilicity (logP) was 3.64^[b].

In the case of `Cn1ncc(CC(=O)N2CCC(c3nc(C(=O)Oc4cccc5ccccc45)cs3)CC2)c1Cl` [Example 5], the logP under setting [1] was 3.00^[b].

Consider `Cn1ncc(CC(=O)N2CCC(c3nc(C(=O)OC4CCCCC4)cs3)CC2)c1Cl` [Example 6], for which, under setting [1], the lipophilicity (logP) is 2.93^[b].

For `O=C(Oc1cccc2ccccc12)c1csc(C2CCN(C(=O)Cc3ccsc3)CC2)n1` [Example 7], the logP under setting [1] is 3.46^[b].

Turning to `O=C(OC1CCCCC1)c1csc(C2CCN(C(=O)Cc3ccsc3)CC2)n1` [Example 8], the logP under setting [1] is 3.42^[b].

As for `O=C(OC1CCCCC1)c1csc(C2CCN(C(=O)Cc3cccc(Cl)c3)CC2)n1` [Example 9], the log partition coefficient (logP) under setting [1] is 4.04^[b].

Consider `O=C(Oc1cccc2ccccc12)c1csc(C2CCN(C(=O)Cc3cccc(Cl)c3)CC2)n1` [Example 10], for which, under setting [1], the lipophilicity (logP) is 4.01^[b].

As for `O=C(Oc1cccc2ccccc12)c1csc(C2CCN(C(=O)Cc3cc(C(F)(F)F)ccc3Cl)CC2)n1` [Example 11], the logP under setting [1] was 4.56^[b].

As for `O=C(OC1CCCCC1)c1csc(C2CCN(C(=O)Cc3cc(C(F)(F)F)ccc3Cl)CC2)n1` [Example 12], under setting [1], the logP is 4.64^[b].

On to `O=C(OC1CCCCC1)c1csc(C2CCN(C(=O)Cc3cc(C(F)(F)F)ccc3Br)CC2)n1` [Example 13], for which, under setting [1], the log partition coefficient (logP) was 4.75^[b].

On to `O=C(OC1CCCCC1)c1csc(C2CCN(C(=O)Cc3cc(Cl)ccc3Cl)CC2)n1` [Example 14], for which, under setting [1], the log partition coefficient (logP) is 4.49^[b].

On to `O=C(OC1CCCCC1)c1csc(C2CCN(C(=O)Cc3cc(Br)ccc3Br)CC2)n1` [Example 15, Cyclohexyl 2-{1-[(2,5-dibromophenyl)acetyl]piperidin-4-yl}-1,3-thiazole-4-carboxylate], for which the chromatographic logP under setting [2] came out at 4.72.

Take `O=C(OC1CCCCC1)c1csc(C2CCN(C(=O)Cc3cc(C(F)(F)F)ccc3C(F)(F)F)CC2)n1` [Example 16]: under setting [1], the log partition coefficient (logP) was 4.81^[b].

As to `Cc1ccc(Br)cc1CC(=O)N1CCC(c2nc(C(=O)OC3CCCCC3)cs2)CC1` [Example 17], under setting [1], the log partition coefficient (logP) is 4.47^[b].

`O=C(OC1CCCCC1)c1csc(C2CCN(C(=O)Cc3cc(Cl)ccc3C(F)(F)F)CC2)n1` [Example 18]: under setting [1], the lipophilicity (logP) was 4.68^[b].

Turning to `Cc1ccc(I)cc1CC(=O)N1CCC(c2nc(C(=O)OC3CCCCC3)cs2)CC1` [Example 19], under setting [1], the logP was 4.66^[b].

For the molecule `Cc1cc(CC(=O)N2CCC(c3nc(C(=O)OC4CCCCC4)cs3)CC2)c(C)s1` [Example 20], the logP under setting [1] is 4.24^[b].

Regarding `Cc1sc(-c2ccccc2)nc1CC(=O)N1CCC(c2nc(C(=O)OC3CCCCC3)cs2)CC1` [Example 21], the logP under setting [1] was 4.57^[b].

For `Cc1oc(-c2ccccc2)nc1CC(=O)N1CCC(c2nc(C(=O)OC3CCCCC3)cs2)CC1` [Example 22], the logP under setting [1] is 4.15^[b].

With `Cc1sc(-c2ccccc2)nc1CC(=O)N1CCC(c2nc(C(=O)Oc3cccc4ccccc34)cs2)CC1` [Example 23], under setting [1], the logP is 4.43^[b].

On to `Cc1oc(-c2ccccc2)nc1CC(=O)N1CCC(c2nc(C(=O)Oc3cccc4ccccc34)cs2)CC1` [Example 24], for which the logP under setting [1] is 4.04^[b].

Regarding `Cc1cc(CC(=O)N2CCC(c3nc(C(=O)Oc4cccc5ccccc45)cs3)CC2)c(C)s1` [Example 25], the logP under setting [1] was 4.12^[b].

As for `Cc1nc(CC(=O)N2CCC(c3nc(C(=O)Oc4cccc5ccccc45)cs3)CC2)c(C)s1` [Example 26], under setting [1], the lipophilicity (logP) was 3.10^[b].

On to `Cc1nc(CC(=O)N2CCC(c3nc(C(=O)OC4CCCCC4)cs3)CC2)c(C)s1` [Example 27], for which, under setting [1], the logP is 3.02^[b].

As to `Cc1nc(C)n(CC(=O)N2CCC(c3nc(C(=O)Oc4cccc5ccccc45)cs3)CC2)n1` [Example 28], the logP under setting [1] is 2.17^[b].

In the case of `Cc1nc(C)n(CC(=O)N2CCC(c3nc(C(=O)OC4CCCCC4)cs3)CC2)n1` [Example 29], the logP under setting [1] was 2.08^[b].

Regarding `O=C(OC1CCCCC1)c1csc(C2CCN(S(=O)(=O)Cc3cc(F)ccc3F)CC2)n1` [Example 30, Cyclohexyl 2-{1-[(2,5-difluorobenzyl)sulphonyl]piperidin-4-yl}-1,3-thiazole-4-carboxylate], the chromatographic logP under setting [2] turned out to be 4.05.

Consider `Cc1cc(C(F)(F)F)nn1CC(=O)N1CCN(c2nc(C(=O)OC(C)c3cc(Cl)ccc3Cl)cs2)CC1` (stereo not drawn) [Example 31], for which, under setting [1], the logP was 4.28^[b].

Consider `Cc1cc(C(F)(F)F)nn1CC(=O)N1CCN(c2nc(C(=O)OC3CCCC(C(F)(F)F)C3)cs2)CC1` (stereo not drawn) [Example 32], for which the logP under setting [3] was 3.81^[c].

Consider `Cc1cc(C(F)(F)F)nn1CC(=O)N1CCN(c2nc(C(=O)Sc3cc(C(F)(F)F)ccc3Cl)cs2)CC1` [Example 33], for which, under setting [1], the logP was 4.51^[b].

Take `Cc1cc(C(F)(F)F)nn1CC(=O)N1CCN(c2nc(C(=O)SC3CCCCC3)cs2)CC1` [Example 34]: the logP under setting [3] is 4.43^[c].

For `COc1ccc(COC(=O)c2csc(N3CCN(C(=O)Cn4nc(C(F)(F)F)cc4C)CC3)n2)cc1` [Example 35], the logP under setting [3] was 3.19^[c].

For the molecule `Cc1cc(C(F)(F)F)nn1CC(=O)N1CCN(c2nc(C(=O)Oc3cccc4cccnc34)cs2)CC1` [Example 36], the logP is reported as 2.85 under setting [1] and 2.83 under setting [3].

Turning to `Cc1cc(C(F)(F)F)nn1CC(=O)N1CCN(c2nc(C(=O)Oc3ccc(Cl)cc3Cl)cs2)CC1` [Example 37], the logP was 3.96 under setting [1] and 3.87 under setting [3].

Take `Cc1ccc(C(F)(F)F)cc1OC(=O)N1CCC(c2nc(C(=O)OC3CCCCC3)cs2)CC1` [Example 38, 2-Methyl-5-(trifluoromethyl)phenyl 4-{4-[(cyclohexyloxy)carbonyl]-1,3-thiazol-2-yl}piperidine-1-carboxylate]: the chromatographic logP under setting [2] turned out to be 5.28.

`Cc1cc(C(F)(F)F)nn1CC(=O)N1CCN(c2nc(C(=O)Oc3ccccc3Cl)cs2)CC1` [Example 39]: the logP by setting is: under setting [1], 3.46; under setting [3], 3.41.

As for `Cc1cc(C(F)(F)F)nn1CC(=O)N1CCN(c2nc(C(=O)Oc3ccc4ccccc4c3)cs2)CC1` [Example 40], the logP reads like this: under setting [1], 3.81; under setting [3], 3.76.

Take `Cc1cc(C(F)(F)F)nn1CC(=O)N1CCN(c2nc(C(=O)OC3Cc4ccccc4C3)cs2)CC1` [Example 41]: the logP under setting [1] was 3.64 and the lipophilicity (logP) under setting [3] worked out at 3.56.

In the case of `Cc1cc(C(F)(F)F)nn1CC(=O)N1CCN(c2nc(C(=O)OC3CCc4ccccc4C3)cs2)CC1` (stereo not drawn) [Example 42], the logP under setting [1] is 3.87 and the log partition coefficient (logP) under setting [3] came out at 3.82.

`Cc1cc(C(F)(F)F)nn1CC(=O)N1CCN(c2nc(C(=O)OC3CCCc4ccccc43)cs2)CC1` (stereo not drawn) [Example 43]: the lipophilicity (logP) is, setting by setting: under setting [1], 3.98; under setting [3], 3.91.

Turning to `Cc1cc(C(F)(F)F)nn1CC(=O)N1CCN(c2nc(C(=O)OCc3ccc(Cl)cc3Cl)cs2)CC1` [Example 44], the lipophilicity (logP) under setting [1] is 4.12^[c]; 4.12^[b] and the lipophilicity (logP) under setting [3] is 4.12^[c]; 4.12^[b].

For `Cc1cc(C(F)(F)F)nn1CC(=O)N1CCN(c2nc(C(=O)Sc3ccc4ccccc4c3)cs2)CC1` [Example 45], the logP under setting [1] is 4.33^[c]; 4.33^[b] and the log partition coefficient (logP) under setting [3] was 4.33^[c]; 4.33^[b].

`Cc1cc(C(F)(F)F)nn1CC(=O)N1CCN(c2nc(C(=O)OC3CCCCC3)cs2)CC1` [Example 46, Cyclohexyl 2-(4-{[5-methyl-3-(trifluoromethyl)-1H-pyrazol-1-yl]acetyl}piperazin-1-yl)-1,3-thiazole-4-carboxylate]: the chromatographic logP reads like this: ([c] LC-MS, neutral range, pH 7.8, 0.001 molar aqueous ammonium bicarbonate and acetonitrile, read-out: logP) 3.68; under setting [2], 3.69.

Turning to `Cc1cc(C(F)(F)F)nn1CC(=O)N1CCN(c2nc(C(=O)Sc3ccc(Cl)cc3Cl)cs2)CC1` [Example 47], the log partition coefficient (logP) stood at 4.49 under setting [1] and 4.5 under setting [3].

Regarding `Cc1cc(C(F)(F)F)nn1CC(=O)N1CCN(c2nc(C(=O)OCc3ccccc3Cl)cs2)CC1` [Example 48], the logP reads like this: under setting [1], 3.64^[c]; 3.64^[b]; under setting [3], 3.64^[c]; 3.64^[b].

As to `Cc1cc(C(F)(F)F)nn1CC(=O)N1CCN(c2nc(C(=O)SCc3ccccc3Cl)cs2)CC1` [Example 49], the lipophilicity (logP) came out at 4.29 under setting [1] and 4.32 under setting [3].

With `Cc1cc(C(F)(F)F)nn1CC(=O)N1CCN(c2nc(C(=O)SCc3ccc(Cl)cc3Cl)cs2)CC1` [Example 50], the lipophilicity (logP) is listed as 4.79 under setting [1] and 4.87 under setting [3].

For the molecule `Cc1cc(C(F)(F)F)nn1CC(=O)N1CCN(c2nc(C(=O)OCc3c(F)cccc3F)cs2)CC1` [Example 51], the lipophilicity (logP) runs as follows: under setting [1], 3.28; under setting [3], 3.33.

As for `O=C(OC1CCCCC1)c1csc(C2CCN(C(=O)Cc3nc(C(F)(F)F)ccc3Cl)CC2)n1` [Example 52], the logP under setting [1] is 4.08^[b].

In the case of `Cc1cc(C(F)(F)F)nn1CC(=O)N1CCN(c2nc(C(=O)OCc3ccc(F)cc3F)cs2)CC1` [Example 53], the lipophilicity (logP) is, setting by setting: under setting [1], 3.42; under setting [3], 3.45.

`Cc1cc(C(F)(F)F)nn1CC(=O)N1CCN(c2nc(C(=O)OC(C)C3CCCCC3)cs2)CC1` (stereo not drawn) [Example 54]: the logP is, setting by setting: under setting [1], 4.4; under setting [3], 4.46.

Regarding `O=C(OC1CCCCC1)c1csc(C2CCN(C(=O)C(=O)c3cccs3)CC2)n1` [Example 55], under setting [1], the logP was 3.46^[b].

With `O=C(OC1CCCCC1)c1csc(C2CCN(C(=O)CC3CCCC(C(F)(F)F)C3)CC2)n1` (stereo not drawn) [Example 56], under setting [1], the logP was 4.58^[b].

`O=C(OC1CCCCC1)c1csc(C2CCN(C(=O)CCCC(F)(F)C(F)(F)F)CC2)n1` [Example 57]: the logP under setting [1] is 4.22^[b].

With `CCCCCCC(=O)N1CCC(c2nc(C(=O)OC3CCCCC3)cs2)CC1` [Example 58], the log partition coefficient (logP) under setting [1] is 4.51^[b].
